Laboratory results published in patent US4895937A, “5-ioso-2-pyrimidinone nucleoside” (The Research Foundation of State University of New York, priority 1988, dated 1990).
“And” between values parts separate entries of the source, which are not always exact repeats. Equal entries are not always repeated. “Also recorded” adds a separate entry of the source. Where two headings read alike, the source gives them in different places.

Tests used:
HSV-2 (333 strain) = assay: In vivo test of IPdR in mice implanted with HSV-2 (333 strain), survival (Example 4); parameters: species or system Swiss Webster Balb/C mice; details: 100 mg/kg twice daily for 2.5 days; for DAYS--SURVIVAL: deaths: 5 mice; for long term survivors (>30 days): out of 5 mice
Procedure: The substituted pyrimidinone of Example 3, 1-(2-deoxy)-β-D-ribofuranosyl)-5-iodo-2-pyrimidinone (IPdR) was tested in vivo. Three groups of five Swiss Webster Balb/C mice weighing from 19 to 23 grams were implanted with HSV-2 (333 strain) with a virus load of 5×10^5 plaque forming units.
Drug administration began one day following virus implant. The IPdR was administered subcutaneously to a first group of mice and intraperitoneally to a second group of mice. The third group of mice which performed as controls were not given any IPdR. The dosage of IPdR was at the rate of 100 mg/kg twice daily for 2.5 days for a total of 5 doses.

[1] = Cytotoxicity / cell proliferation in KB cells (Example 8 Part B); assay type: cell-based, human; details: human, kb cells, 72 hour exposure
Procedure: (§1) To compare the toxicity of FPdR and IPdR human nasopharyngeal carcinoma KB cells obtained from the American Type Culture Collection were maintained as a monolayer in RPMI 1640 supplemented with 5% fetal bovine serum, 10 mM HEPES buffer (pH 7.4) and karamycin (100 μg/ml). Cells were maintained at 37° C. in a humidified atmosphere of 5% CO2 in air. Cell numbers were determined with an electronic particle counter (Particle Data, Inc., Elmhurst, Ill.).
(§2) For determination of drug effect on cell proliferation, cells were harvested from rapidly proliferting cultures by treatment with pancreation. Cell number was determined and plated in 24 well (6 mm well diameter) plates at a concentratin of 5×10^3 cells/ml. Drug exposures were initiated by a complete change of medium after overnight incubation. Following a 72 hour drug exposure […]. of thiazolyl blue was added and incubated for a further 4 hour period. The media from the plates was aspirated completely and […] DMSO was added to each well. The plates were placed on a shaker for 5 minutes and the blue solution transferred to 96 well plates and read at 540 nm with a scanning multiwell spectrophotometer (Biotek Instruments, Inc. Burlington, Vt.).

[2] = tested on: human nasopharyngeal carcinoma KB cells; assay: as above; assay type: cell-based
Procedure: as §1, §2

HSV-2 (Strain 333) = assay: Antiviral activity in HSV-2 infected mice by various routes (Example 9); assay type: in vivo, Swiss-Webster female mice; details: for % ILS: excluding 45 day survivors
Procedure: The drugs were administered once a day for five days or twice daily (12 hour intervals) for 2.5 days beginning 24 hours postinfection. Mean body weight determinations of drug treated and control animals were made during the treatment period as an indicator of sublethal toxicity. Deaths were recorded through day 45.

HSV-1 (KOS) = assay: Antiherpes activity, HSV-1 (KOS) (Example 10); assay type: cell-based; details: Human alphaherpesvirus 1; 100 μM; read-out: plaque-forming units as % of control
Procedure: (§3) IPdR and 5-bromo-2-pyrimidinone-2-deoxyribonucleoside (BrPdR) were tested for antiherpes activity according to procedures described by Cheng, Y.-C., et al. Antimicrob. Agents Chemother (1976) 10, 119.

HSV-1 (CLl0l) = assay: Antiherpes activity, HSV-1 (CLl0l) (Example 10); assay type: cell-based; details: Human alphaherpesvirus 1; 100 μM; read-out: plaque-forming units as % of control
Procedure: as §3

HSV-2 (333) = assay: Antiherpes activity, HSV-2 (333) (Example 10); assay type: cell-based; details: Human alphaherpesvirus 2; 100 μM; read-out: plaque-forming units as % of control
Procedure: as §3

HSV-2 (CEU-G) = assay: Antiherpes activity, HSV-2 (CEU-G) (Example 10); assay type: cell-based; details: Human alphaherpesvirus 2, read-out: plaque-forming units as % of control
Procedure: as §3

[3] = tested on: ACG (S1), acyclovir resistant strain of HSV1; assay: Antiherpes activity, acyclovir resistant strain of HSV1 (S1) (Example 10); assay type: cell-based, HSV-1
Procedure: as §3

[4] = tested on: ACG (Tr7), acyclovir resistant strain of HSV1; assay: Antiherpes activity, acyclovir resistant strain of HSV1 (Tr7) (Example 10); assay type: cell-based, HSV-1; details: Human alphaherpesvirus 1, read-out: plaque-forming units as % of control
Procedure: as §3

PFA-resistant strains = assay: Antiherpes activity, PFA-resistant strain (Example 10); assay type: cell-based
Procedure: as §3

[5] = tested on: HSV-1 and HSV-2 strains (herpes virus group); assay: Antiherpes activity, overall statement; assay type: cell-based
Procedure: as §3

[6] = tested on: virus-specific thymadine kinase; assay: Binding to the virus-specific thymidine kinase (Example 10); details: compared with BrPdR
[7] = tested on: acyclovir (ACG) and BVdU resistant strains of HSV-1; assay: Antiherpes activity against acyclovir (ACG) and BVdU resistant strains of HSV-1, overall statement; assay type: cell-based
Procedure: as §3

[8] = 100 mg/kg oral, 2 × 21/2, 72 hours after implant
[9] = 100 mg/kg oral, 2 × 21/2, innoculation dose 1 × 10^6 PFU

O=c1ncc(I)cn1[C@H]1C[C@H](O)[C@@H](CO)O1 [IPdR, 1-(2-Deoxy-β-D-Ribofuranosyl)-5-iodo-2-pyrimidinone]
DAYS--SURVIVAL: deaths (HSV-2 (333 strain); intraperitoneal): 1 died on day 17 | long term survivors (>30 days) (HSV-2 (333 strain); intraperitoneal): 4 | DAYS--SURVIVAL: deaths (HSV-2 (333 strain); subcutaneous, 100 mg/kg): 1 died on day 11 and 2 died on day 13 | long term survivors (>30 days) (HSV-2 (333 strain); subcutaneous): 2 | DAYS--SURVIVAL: days average (HSV-2 (333 strain); subcutaneous, control 9.4 days average): 12 days | activity at 72 h, 100 µM ([1]; 100 μm, read-out: % Growth): 75% | activity at 72 h, 200 µM ([1]; 200 μm, read-out: % Growth): 80% | IC50 at 72 h ([1]; cytotoxicity, read-out: ID50): > 200 µM | toxicity against the host cells [2]: low level of toxicity for the host cell | Survivors/Total (HSV-2 (Strain 333); 10 mg/kg IP, 2 × 21/2): 0/5 | percent survival (HSV-2 (Strain 333); 10 mg/kg IP, 2 × 21/2): 0% | Mean Survival Time (days), of the mice that died (HSV-2 (Strain 333); 10 mg/kg IP, 2 × 21/2, control 9.3 ± 1.1): 12.8 ± 3.6 days | % ILS (HSV-2 (Strain 333); 10 mg/kg IP, 2 × 21/2): 133% | Survivors/Total (HSV-2 (Strain 333); 10 mg/kg oral, 2 × 21/2): 0/5 | percent survival (HSV-2 (Strain 333); 10 mg/kg oral, 2 × 21/2): 0% | Mean Survival Time (days), of the mice that died (HSV-2 (Strain 333); 10 mg/kg oral, 2 × 21/2, control 10.6 ± 2.1): 12.8 ± 3.6 days | % ILS (HSV-2 (Strain 333); 10 mg/kg oral, 2 × 21/2): 123% | Survivors/Total (HSV-2 (Strain 333); 40 mg/kg IP, 2 × 21/2): 2/5 | percent survival (HSV-2 (Strain 333); 40 mg/kg IP, 2 × 21/2): 40% | Mean Survival Time (days), of the mice that died (HSV-2 (Strain 333); 40 mg/kg IP, 2 × 21/2, control 9.3 ± 1.1): 10.0 ± 1.0 days | % ILS (HSV-2 (Strain 333); 40 mg/kg IP, 2 × 21/2): 108% | Survivors/Total (HSV-2 (Strain 333); 40 mg/kg oral, 2 × 21/2): 2/5 | percent survival (HSV-2 (Strain 333); 40 mg/kg oral, 2 × 21/2): 40% | Mean Survival Time (HSV-2 (Strain 333); 40 mg/kg oral, 2 × 21/2, control 10.6 ± 2.1): 10.0 ± 1.0 days | % ILS (HSV-2 (Strain 333); 40 mg/kg oral, 2 × 21/2): 94% | Survivors/Total (HSV-2 (Strain 333); 100 mg/kg IP, 1 × 5): 7/10 | percent survival (HSV-2 (Strain 333); 100 mg/kg IP, 1 × 5): 70% | Mean Survival Time (days), of the mice that died (HSV-2 (Strain 333); 100 mg/kg IP, 1 × 5, control 9.6 ± 1.1): 12.0 ± 4.4 days | % ILS (HSV-2 (Strain 333); 100 mg/kg IP, 1 × 5): 129% | Survivors/Total (HSV-2 (Strain 333); 100 mg/kg IP, 2 × 21/2): 6/10 | percent survival (HSV-2 (Strain 333); 100 mg/kg IP, 2 × 21/2): 60% | Mean Survival Time (days), of the mice that died (HSV-2 (Strain 333); 100 mg/kg IP, 2 × 21/2, control 9.3 ± 1.1): 12.5 ± 1.3 days | % ILS (HSV-2 (Strain 333); 100 mg/kg IP, 2 × 21/2): 135% | Survivors/Total (HSV-2 (Strain 333); 100 mg/kg SC, 1 × 5): 2/5 | percent survival (HSV-2 (Strain 333); 100 mg/kg SC, 1 × 5): 40% | Mean Survival Time (days), of the mice that died (HSV-2 (Strain 333); 100 mg/kg SC, 1 × 5, control 9.4 ± 1.1): 12.3 ± 1.2 days | % ILS (HSV-2 (Strain 333); 100 mg/kg SC, 1 × 5): 131% | Survivors/Total (HSV-2 (Strain 333); 100 mg/kg oral, 2 × 21/2): 20/20 | percent survival (HSV-2 (Strain 333); 100 mg/kg oral, 2 × 21/2): 100% | Survivors/Total (HSV-2 (Strain 333); [8]): 5/5 | percent survival (HSV-2 (Strain 333); [8]): 100% | Mean Survival Time (HSV-2 (Strain 333); 100 mg/kg oral, 2 × 21/2, control 9.8 ± 1.3): > 45 days | Mean Survival Time (HSV-2 (Strain 333); 100 mg/kg oral, 2 × 21/2, control 10.6 ± 2.1): > 45 days | Survivors/Total (HSV-2 (Strain 333); [9]): 4/5 | percent survival (HSV-2 (Strain 333); [9]): 80% | Mean Survival Time (days), of the mice that died (HSV-2 (Strain 333); 100 mg/kg oral, 2 × 21/2, innoculation dose 1 × 10^6 PFU, control 10.0 ± 1.2): 14.0 days | % ILS (HSV-2 (Strain 333); [9]): 140% | toxicity to the host (HSV-2 (Strain 333); oral, intraperitoneal or subcutaneous): without significant toxicity to the host | activity against HSV-2 in vivo / life span of the host (HSV-2 (Strain 333); summary of Table 5): active against HSV-2 in vivo; also recorded: can significantly increase | activity at 100 µM (HSV-1 (KOS)): 0.27% | activity at 100 µM (HSV-1 (CLl0l)): 1.6% | activity at 100 µM (HSV-2 (333)): 2.8% | activity at 100 µM (HSV-2 (CEU-G)): 9.3% | activity at 100 µM ([3]; Human alphaherpesvirus 1, read-out: plaque-forming units as % of control): 22% | cross resistance of the more highly ACG-resistant strain ([3]; S1 compared with Tr7): more cross resistance | activity at 100 µM [4]: 2.6% | activity against PFA-resistant strains (PFA-resistant strains): retained full activity | activity at 100 µM (PFA-resistant strains; 100 μM, read-out: plaque-forming units as % of control): 0.1% | antiherpes / anti-viral activity (words) [5]: significant antiherpes activities; also recorded: showing the higher activity | antiherpes / anti-viral activity (words) ([5]; listed as 1-(2-Deoxy-β-D-ribofuranosyl)-5-(iodo)-2-pyrimidinone): high level of anti-viral activity | binding to the virus-specific thymadine kinase [6]: stronger binding to the virus-specific thymadine kinase | activity against acyclovir (ACG) and BVdU resistant strains [7]: somewhat reduced but still significant activity
